This is an account of results in article PMC12039421 (Animal Cells and Systems, 2025).

Experiment [1] addresses T1, human ERα-LBD (Homo sapiens, UniProt P03372).
T1 sequence (P03372 304-554): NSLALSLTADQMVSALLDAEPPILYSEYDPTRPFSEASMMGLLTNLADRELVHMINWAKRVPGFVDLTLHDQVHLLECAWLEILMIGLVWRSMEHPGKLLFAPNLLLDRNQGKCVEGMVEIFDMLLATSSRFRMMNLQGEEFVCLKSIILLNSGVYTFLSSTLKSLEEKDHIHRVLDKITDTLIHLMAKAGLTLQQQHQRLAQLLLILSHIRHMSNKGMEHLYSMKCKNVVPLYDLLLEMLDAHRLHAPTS
The experiment in a line: biochemical. It counts as binding.

Experiment [2] has as its system ERα. As to conditions: cited from earlier work.
For experiment [3], the target named is human ERβ-LBD (Homo sapiens, UniProt Q92731). The experiment in a line: Isothermal titration calorimetry. It counts as binding.
Chain of human ERβ-LBD (Q92731 264-498): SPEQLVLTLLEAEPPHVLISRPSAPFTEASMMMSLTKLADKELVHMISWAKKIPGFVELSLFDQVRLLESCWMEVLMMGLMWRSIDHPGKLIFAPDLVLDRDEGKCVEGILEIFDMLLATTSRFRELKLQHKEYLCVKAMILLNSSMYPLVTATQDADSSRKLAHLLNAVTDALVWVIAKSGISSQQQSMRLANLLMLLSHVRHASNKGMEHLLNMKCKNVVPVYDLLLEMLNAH
For experiment [4], the system named is ERα. As to conditions: ref ICCVAM [2003]; cited from earlier work.
[5] abbreviates: ITC, 25 °C, one binding site model.

As to `CC(C)C(=O)Nc1ccc([N+](=O)[O-])c(C(F)(F)F)c1` [Flutamide], the “Kd (ER α)” value in experiment [1] (setting [5]) is “no binding”. Also, the “activity in previous TG 455 (in words)” value in experiment [2] (previous TG 455, ref Zacharia [2017]) is recorded as “no activity”. The “Kd (ER β)” value in experiment [3] (setting [5]) is “no binding”.

Consider `C[C@]12CC[C@H]3[C@@H](CCC4=CC(=O)CC[C@@]43C)[C@@H]1CC[C@@H]2O` [testosterone], for which, in experiment [4], the “ER binding in TG 493 (in words)” value is “may bind to the ER”. Besides, the “transcriptional response in TG 455 (in words)” value in experiment [2] (ref ICCVAM [2003]) is “fails to induce downstream transcriptional responses”.

Turning to `CCC(C)(c1ccc(O)cc1)c1ccc(O)cc1` [Bisphenol B], the dissociation constant Kd stood at 112 µM in experiment [1] and 51.3 µM in experiment [3].

The molecule `CC(C)(C)CC(C)(C)c1ccc(O)cc1` [4-tert-Octylphenol] displayed a Kd in experiment [3] of 15.9 µM.
